27 molecules from patent US10035790B2, “RORγ modulators” (BRISTOL-MYERS SQUIBB COMPANY, priority 2012, dated 2018) can be followed below.

For this assay, the target named is T1, ligand binding domain of human RORγ (A262-S507) (Homo sapiens, UniProt P51449).
T1 construct: made in house; host or cells: E. coli
T1 sequence (P51449 262-507): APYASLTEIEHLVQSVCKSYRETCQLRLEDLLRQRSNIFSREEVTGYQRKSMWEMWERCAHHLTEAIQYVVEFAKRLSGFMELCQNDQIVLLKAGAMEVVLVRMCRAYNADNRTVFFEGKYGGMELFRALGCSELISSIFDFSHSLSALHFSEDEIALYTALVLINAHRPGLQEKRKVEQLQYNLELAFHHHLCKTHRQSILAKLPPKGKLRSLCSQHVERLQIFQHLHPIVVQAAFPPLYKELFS
Put plainly: General RORγ SPA binding assay (competition with [3H]25-hydroxycholesterol). As to conditions: RORγ SPA binding assay, inhibition of [3H]25-hydroxycholesterol binding; read-out: IC50. In outline: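 Step one: compound meets 50 nM nickel-purified, His-tagged protein from E. coli for 15 min at room temperature (PBS, 0.5% fatty acid free BSA). Step two: radioligand is added for another 15 min. Step three: SPA beads are added for 30 min before scintillation reading and IC50 fitting.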
With `C/C(=N/Oc1cccc(C(F)(F)F)c1)c1cnc(C)nc1C1CCN(C(=O)Cc2c(F)cccc2F)CC1` [Compound B4, (Z)-2-(2,6-Difluorophenyl)-1-(4-(2-methyl-5-(1-(3-(trifluoromethyl)phenoxyimino)ethyl)pyrimidin-4-yl)piperidin-1-yl)ethanone], the IC50 (commonly the concentration that inhibits the measured activity by half) is 137 nM.

Regarding `C/C(=N\Oc1cccc(Cl)c1)c1cnc(C)nc1C1CCN(C(=O)Cc2c(F)cccc2F)CC1` [Compound B5, (E)-1-(4-(5-(1-((3-chlorophenoxy)imino)ethyl)-2-methylpyrimidin-4-yl)piperidin-1-yl)-2-(2,6-difluorophenyl)ethanone], the IC50 was 2.5 nM.

Turning to `C/C(=N/Oc1cccc(Cl)c1)c1cnc(C)nc1C1CCN(C(=O)Cc2c(F)cccc2F)CC1` [Compound B6, (Z)-1-(4-(5-(1-((3-chlorophenoxy)imino)ethyl)-2-methylpyrimidin-4-yl)piperidin-1-yl)-2-(2,6-difluorophenyl)ethanone], the IC50 is 1930 nM.

`C/C(=N\Oc1cccc(OC(F)(F)F)c1)c1cnc(C)nc1C1CCN(C(=O)Cc2c(F)cccc2F)CC1` [Compound B7, (E)-2-(2,6-difluorophenyl)-1-(4-(2-methyl-5-(1-((3-(trifluoromethoxy)phenoxy)imino)ethyl)pyrimidin-4-yl)piperidin-1-yl)ethanone]: the IC50 worked out at 10.6 nM.

With `C/C(=N/Oc1cccc(OC(F)(F)F)c1)c1cnc(C)nc1C1CCN(C(=O)Cc2c(F)cccc2F)CC1` [Compound B8, (Z)-2-(2,6-difluorophenyl)-1-(4-(2-methyl-5-(1-((3-(trifluoromethoxy)phenoxy)imino)ethyl)pyrimidin-4-yl)piperidin-1-yl)ethanone], the IC50 was found to be 1500 nM.

`C/C(=N\Oc1cc(C)cc(C)c1)c1cnc(C)nc1C1CCN(C(=O)Cc2c(F)cccc2F)CC1` [Compound B9, (E)-2-(2,6-difluorophenyl)-1-(4-(5-(1-((3,5-dimethylphenoxy)imino)ethyl)-2-methylpyrimidin-4-yl)piperidin-1-yl)ethanone]: the IC50 is 2.7 nM.

With `C/C(=N/Oc1cc(C)cc(C)c1)c1cnc(C)nc1C1CCN(C(=O)Cc2c(F)cccc2F)CC1` [Compound B10, (Z)-2-(2,6-difluorophenyl)-1-(4-(5-(1-((3,5-dimethylphenoxy)imino)ethyl)-2-methylpyrimidin-4-yl)piperidin-1-yl)ethanone], the IC50 came out at 1670 nM.

For `C/C(=N\Oc1cccc(C)c1)c1cnc(C)nc1C1CCN(C(=O)Cc2c(F)cccc2F)CC1` [Compound B11, (E)-2-(2,6-difluorophenyl)-1-(4-(2-methyl-5-(1-((m-tolyloxy)imino)ethyl)pyrimidin-4-yl)piperidin-1-yl)ethanone], the IC50 amounted to 1.7 nM.

On to `C/C(=N\Oc1cc(F)cc(Cl)c1)c1cnc(C)nc1C1CCN(C(=O)Cc2c(F)cccc2F)CC1` [Compound B12, (E)-1-(4-(5-(1-((3-chloro-5-fluorophenoxy)imino)ethyl)-2-methylpyrimidin-4-yl)piperidin-1-yl)-2-(2,6-difluorophenyl)ethanone], for which the IC50 was found to be 2.2 nM.

`C/C(=N\Oc1ccnc(C#N)c1)c1cnc(C)nc1C1CCN(C(=O)Cc2c(F)cccc2F)CC1` [Compound B13, (E)-4-(((1-(4-(1-(2-(2,6-difluorophenyl)acetyl)piperidin-4-yl)-2-methylpyrimidin-5-yl)ethylidene)amino)oxy)picolinonitrile]: the IC50 is 4.7 nM.

On to `C/C(=N\Oc1ccnc(C(F)(F)F)c1)c1cnc(C)nc1C1CCN(C(=O)Cc2c(F)cccc2F)CC1` [Compound B14, (E)-2-(2,6-difluorophenyl)-1-(4-(2-methyl-5-(1-(((2-(trifluoromethyl)pyridin-4-yl)oxy)imino)ethyl)pyrimidin-4-yl)piperidin-1-yl)ethanone], for which the IC50 worked out at 4.8 nM.

Take `C/C(=N\Oc1ccnc(Cl)c1)c1cnc(C)nc1C1CCN(C(=O)Cc2c(F)cccc2F)CC1` [Compound B15, (E)-1-(4-(5-(1-(((2-chloropyridin-4-yl)oxy)imino)ethyl)-2-methylpyrimidin-4-yl)piperidin-1-yl)-2-(2,6-difluorophenyl)ethanone]: the IC50 is 5.1 nM.

Turning to `C/C(=N\Oc1cccc(F)c1)c1cnc(C)nc1C1CCN(C(=O)Cc2c(F)cccc2F)CC1` [Compound B16, (E)-2-(2,6-difluorophenyl)-1-(4-(5-(1-((3-fluorophenoxy)imino)ethyl)-2-methylpyrimidin-4-yl)piperidin-1-yl)ethanone], the IC50 amounted to 5.9 nM.

`C/C(=N\Oc1cc(F)ccc1C)c1cnc(C)nc1C1CCN(C(=O)Cc2c(F)cccc2F)CC1` [Compound B17, (E)-2-(2,6-difluorophenyl)-1-(4-(5-(1-((5-fluoro-2-methylphenoxy)imino)ethyl)-2-methylpyrimidin-4-yl)piperidin-1-yl)ethanone]: the IC50 came to 9.3 nM.

`C/C(=N\Oc1cc(C)ccc1C)c1cnc(C)nc1C1CCN(C(=O)Cc2c(F)cccc2F)CC1` [Compound B18, (E)-2-(2,6-difluorophenyl)-1-(4-(5-(1-((2,5-dimethylphenoxy)imino)ethyl)-2-methylpyrimidin-4-yl)piperidin-1-yl)ethanone]: the IC50 came to 11.2 nM.

`C/C(=N\Oc1cccc(C(F)(F)F)n1)c1cnc(C)nc1C1CCN(C(=O)Cc2c(F)cccc2F)CC1` [Compound B19, (E)-2-(2,6-difluorophenyl)-1-(4-(2-methyl-5-(1-(((6-(trifluoromethyl)pyridin-2-yl)oxy)imino)ethyl)pyrimidin-4-yl)piperidin-1-yl)ethanone]: the IC50 turned out to be 13.9 nM.

Consider `C/C(=N\Oc1ccnc(C(F)(F)F)n1)c1cnc(C)nc1C1CCN(C(=O)Cc2c(F)cccc2F)CC1` [Compound B20, (E)-2-(2,6-difluorophenyl)-1-(4-(2-methyl-5-(1-(((2-(trifluoromethyl)pyrimidin-4-yl)oxy)imino)ethyl)pyrimidin-4-yl)piperidin-1-yl)ethanone], for which the IC50 was found to be 15.8 nM.

As for `COc1cccc(O/N=C(\C)c2cnc(C)nc2C2CCN(C(=O)Cc3c(F)cccc3F)CC2)c1` [Compound B21, (E)-2-(2,6-difluorophenyl)-1-(4-(5-(1-((3-methoxyphenoxy)imino)ethyl)-2-methylpyrimidin-4-yl)piperidin-1-yl)ethanone], the IC50 worked out at 23.7 nM.

Consider `C/C(=N\Oc1cccc(C)c1C)c1cnc(C)nc1C1CCN(C(=O)Cc2c(F)cccc2F)CC1` [Compound B22, (E)-2-(2,6-difluorophenyl)-1-(4-(5-(1-((2,3-dimethylphenoxy)imino)ethyl)-2-methylpyrimidin-4-yl)piperidin-1-yl)ethanone], for which the IC50 amounted to 84 nM.

`Cc1ncc(/C(CO)=N/Oc2ccnc(C(F)(F)F)c2)c(C2CCN(C(=O)Cc3c(F)cccc3F)CC2)n1` [Compound B23, (1Z)-1-(4-{1-[(2,6-Difluorophenyl)acetyl]piperidin-4-yl}-2-methylpyrimidin-5-yl)-2-hydroxyethanone O-[2-(trifluoromethyl)pyridin-4-yl]oxime]: the IC50 is 8.4 nM.

As for `Cc1ncc(C(CF)=NOc2ccnc(C(F)(F)F)c2)c(C2CCN(C(=O)Cc3c(F)cccc3F)CC2)n1` [Compound B24, (1Z)-1-(4-{1-[(2,6-Difluorophenyl)acetyl]piperidin-4-yl}-2-methylpyrimidin-5-yl)-2-fluoroethanone 0-[2-(trifluoromethyl)pyridin-4-yl]oxime], the IC50 turned out to be 8.7 nM.

For `Cc1ncc(/C(CO)=N/Oc2ccnc(C(F)(F)F)n2)c(C2CCN(C(=O)Cc3c(F)cccc3F)CC2)n1` [Compound B25, (Z)-2-(2,6-difluorophenyl)-1-(4-(5-(2-hydroxy-1-(((2-(trifluoromethyl)pyrimidin-4-yl)oxy)imino)ethyl)-2-methylpyrimidin-4-yl)piperidin-1-yl)ethanone], the IC50 amounted to 11.2 nM.

`Cc1ncc(/C(CO)=N\Oc2ccnc(C(F)(F)F)n2)c(C2CCN(C(=O)Cc3c(F)cccc3F)CC2)n1` [Compound B26, (E)-2-(2,6-difluorophenyl)-1-(4-(5-(2-hydroxy-1-(((2-(trifluoromethyl)pyrimidin-4-yl)oxy)imino)ethyl)-2-methylpyrimidin-4-yl)piperidin-1-yl)ethanone]: the IC50 was determined as 95 nM.

`Cc1ncc(/C(CF)=N/Oc2ccnc(C(F)(F)F)n2)c(C2CCN(C(=O)Cc3c(F)cccc3F)CC2)n1` [Compound B27, (Z)-2-(2,6-difluorophenyl)-1-(4-(5-(2-fluoro-1-(((2-(trifluoromethyl)pyrimidin-4-yl)oxy)imino)ethyl)-2-methylpyrimidin-4-yl)piperidin-1-yl)ethanone]: the half-inhibitory concentration (IC50) amounted to 35.8 nM.

With `Cc1ncc(/C(CO)=N/Oc2cccc(C(F)(F)F)c2)c(C2CCN(C(=O)Cc3c(F)cccc3F)CC2)n1` [Compound B28, (Z)-2-(2,6-difluorophenyl)-1-(4-(5-(2-hydroxy-1-((3-(trifluoromethyl)phenoxy)imino)ethyl)-2-methylpyrimidin-4-yl)piperidin-1-yl)ethanone], the IC50 is 696 nM.

As to `Cc1ncc(/C=N/Oc2cccc(C(F)(F)F)c2)c(C2CCN(C(=O)Cc3c(F)cccc3F)CC2)n1` [Compound B30, (E)-4-(1-(2-(2,6-Difluorophenyl)acetyl)piperidin-4-yl)-2-methylpyrimidine-5-carbaldehyde O-3-(trifluoromethyl)phenyl oxime], the IC50 worked out at 9.7 nM.

With `Cc1nc(C)c(C=NOc2cccc(C(F)(F)F)c2)c(C2CCN(C(=O)Cc3c(F)cccc3F)CC2)n1` [Compound B31, 4-{1-[(2,6-Difluorophenyl)acetyl]piperidin-4-yl}-2,6-dimethylpyrimidine-5-carbaldehyde O-[3-(trifluoromethyl)phenyl]oxime], the IC50 was determined as 3.4 nM.
